The results in this text go back to patent US20150011501A1, “PARTIALLY DEPOLYMERIZED GLYCOSAMINOGLYCAN SILVER AND GOLD SALTS” (priority 2012, published 2015).

The nature of data set [1]: Stability test (visual inspection of colour in the dark and under ambient light). In kind it is physicochemical. The note with it: precipitated product. The protocol:
After this time, a visual inspection of the products was carried out and the products were protected in the dark again. After 12 hours, another visual inspection of the products was carried out. The products were then exposed to ambient light. After 5 hours, a visual inspection of the products was carried out.

For data set [2], the system named is S. Aureus. Briefly: Test of antimicrobial activity (halo diameter on plate). Format: cell-based. The arrangement: unit not given here. As to conditions: chondroitin sulfate products 10% w/v, hyaluronic acid products 1.4% w/v in water. From the text: (§1) The objective of the test was to verify the antimicrobial activity with the microorganisms E. Coli and S. Aureus. For this purpose, solutions in water of the following products were separately prepared: • Commercially available sodium chondroitin sulfate of marine origin having a molecular weight between 25,000 and 40,000 Daltons. Product described in European Pharmacopeia (01/2009:2064) (comparative example 10); • High molecular weight silver chondroitin sulfate (comparative example 8); • Partially depolymerized silver chondroitin sulfate (example 1); • High molecular weight silver hyaluronate (comparative example 9); • Partially depolymerized silver hyaluronate (example 2); • AgNO3 (comparative example 11); • Partially depolymerized gold chondroitin sulfate (example 3); • Partially depolymerized gold hyaluronate (example 4); and • Mixture of 1 g of commercially available sodium chondroitin sulfate of marine origin having a molecular weight between 25,000 and 40,000 Daltons and 0.1 g of AgNO3 (comparative example 12).
(§2) The products derived from chondroitin sulfate were dissolved at 10% (weight/volume). The products derived from hyaluronic acid were dissolved at 1.4% (weight/volume). For the rest of products water was added until complete dissolution.
(§3) Each of the products was applied, as well as a control (water), to a plate with S. Aureus and E. Coli. The products were incubated under standard conditions for S. Aureus and E. Coli. The results were expressed in areolar or halo diameter and were the following: for the comparative example 10 it was 0 in E. Coli and 0 in S. Aureus; for the comparative example 8 it was 7 in E. Coli and 8 in S. Aureus; for the example 1 it was 7 in E. Coli and 6 in S. Aureus; for the comparative example 9 it was 8 in E. Coli and 8 in S. Aureus; for the example 2 it was 7 in E. Coli and 6 in S. Aureus; for the comparative example 11 it was 8 in E. Coli and 6 in S. Aureus; for the example 3 it was 9 in E. Coli and 8 in S. Aureus; for the control it was 0 in E. Coli and 0 in S. Aureus; for the example 4 it was 4 in E. Coli and 6 in S. Aureus; and for the comparative example 12 it was 7 in E. Coli and 5 in S. Aureus.

In data set [3] the test system is E. Coli. Described as above. Format: cell-based. Also on record: unit not given here. As to conditions: chondroitin sulfate products 10% w/v, hyaluronic acid products 1.4% w/v in water.
Description: as §1, §2, §3

Data set [4] is described as follows: Preliminary test of toxicology (topical): side effects by visual inspection. Format: in vivo. As to the method:
(§4) The aim of this test was to assess the toxicity (topical) and effectiveness in burns. The side effects that the different products could cause including irritation, inflammation and/or darkening were assessed by visual inspection and photographs. The products assessed were the following: • Commercially available sodium chondroitin sulfate of marine origin having a molecular weight between 25,000 and 40,000 Daltons. Product described in European Pharmacopeia (01/2009:2064) (comparative example 10); • Partially depolymerized silver chondroitin sulfate (example 1); • Partially depolymerized silver chondroitin sulfate dissolved/mixed in a moisturizing cream (example 1c); • Partially depolymerized silver hyaluronate (example 2); • AgNO3 (comparative example 11); and • Partially depolymerized gold chondroitin sulfate (example 3).
(§5) The products derived from chondroitin sulfate were dissolved in water at 10% (weight/volume). The products derived from hyaluronic acid were dissolved at 1.4% (weight/volume). For the silver nitrate water was added until complete dissolution. The product of example 1c was mixed with a moisturizing cream.
All the products were applied in the “upper area of the arm” (upper biceps) and in the abdomen (area of the ribs). The products of examples 1, 2 and 3 were also applied in the “lower area of the arm”. The visual inspections were carried out with the following frequency after the application: 10 minutes, 30 minutes, 60 minutes, 8 h, 3 days, 4 days, 7 days and 9 days.
The treated areas were exposed to different types of light (solar, incandescent bulb, fluorescent) for 10 minutes. Darkening was not observed in any case. The abdomen was protected from the light after 10 minutes. The “upper area of the arm” was left under light exposure up to 8 hours. The “lower area of the arm” had continuous exposure to ambient light.

Data set [5] can be described thus: Viscosity test (dissolution time, appearance, displacement time). As to conditions: 0.01 g in 0.5 mL water, tube inverted (180° rotation). Format: physicochemical. From the text: The objective of the test was to verify that the viscosity of the partially depolymerized products obtained is lower than the viscosity of the starting products (non-depolymerized). The products assessed were the following: • High molecular weight silver chondroitin sulfate (comparative example 8); • Partially depolymerized silver chondroitin sulfate (example 1); • High molecular weight silver hyaluronate (comparative example 9) and • Partially depolymerized silver hyaluronate (example 2).
The following parameters were assessed: dissolution time, appearance (visual method) and displacement time.
0.01 g of each product was dissolved separately in 0.5 mL of distilled water in test tubes of 11.5 cm of length and 1 cm of diameter. Once the products were completely dissolved, the position of the tubes was inverted to check the displacement time.

Data set [6] is described as follows: Preliminary test of effectiveness in burns. In kind it is in vivo. As to conditions: for efficacy in skin surfaces with burns or wounds: overall conclusion. As to the method:
as §4, §5
In the application of the product of the comparative example 11 irritation was observed both in the “upper area of the arm” and in the abdomen at 10 minutes and at 30 minutes. […] At this moment, the product of example 1 was applied to the burn of the abdomen. 2 daily applications of the product of example 1 were done to the burn during the next 3 days. […] At this moment, the product of example 2 was applied to the burn of the “upper area of the arm”. 3 daily applications of the product of example 2 were done to the burn.

Data set [7] is described as follows: Acute oral toxicology test (OECD Guideline No. 420, fixed dose). Format: in vivo. Also on record: median lethal oral dose (LD50): unit not given here. The protocol: An acute oral toxicology test of partially depolymerized silver chondroitin sulfate (example 1) was carried out to assess the oral toxicity and identify the corresponding classification (GHS, Globally Harmonised Classification System for Chemical Substances and Mixtures). The study was conducted according to the OECD Guideline No. 420 (fixed dose).

Data set [8] in a line: Absorption test on cellulose paper. Format: physicochemical. The protocol:
A comparative test of the absorption of the depolymerized compounds of the invention and the non-depolymerized compounds was carried out. To do this, partially depolymerized silver chondroitin sulfate (example 1) and high molecular weight silver chondroitin sulfate (comparative example 8) were dissolved separately with water at the same concentration (10% by weight/volume). Once the products were completely dissolved it was noted that the viscosity of the product of example 1 was lower than that of the product of the comparative example 8. 10 mL of each product were applied on cellulose paper.

Where [9] appears, read: after 5 hours of exposure to ambient light.

“Partially Depolymerized Silver Chondroitin Sulfate (Without Bleaching Step) [comparative example 7]”: the “color (visual inspection)” value is on record as “white” in data set [1] (after 1 hour in the dark), “dark red” in data set [1] (setting [9]) and “white” in data set [1] (after 12 hours in the dark).

For the molecule “Partially Depolymerized Gold Hyaluronate [example 4]”, the “areolar or halo diameter” value in data set [2] was determined as 6; in data set [3], 4.

Turning to “Partially Depolymerized Silver Hyaluronate [example 2]”, in data set [4] (in vivo), the “problems of darkening, irritation, itching or inflammation” value (shortened to “problems of darkening, irritation”) is “did not have problems of darkening, irritation, itching or inflammation” and the “side effects by visual inspection” value is recorded as “no relevant behavior”. In addition, the displacement time in data set [5] is 1 s. Besides, the “efficacy in skin surfaces with burns or wounds” value in data set [6] is recorded as “produce an improvement”. Moreover, the “burn healing (visual)” value in data set [6] (silver nitrate burn of the upper area of the arm, 3 daily applications from seventh day, observed after the ninth day) was “almost completely disappeared”. In addition, the “areolar or halo diameter” value in data set [2] is reported as 6. In addition, the “areolar or halo diameter” value in data set [3] is recorded as 7.

As for “Partially Depolymerized Silver Chondroitin Sulfate [example 1]”, in data set [4] (topical, all areas applied, all inspections from 10 minutes to 9 days), the “side effects by visual inspection” value is “no relevant behavior”. In addition, the “problems of darkening, irritation” value in data set [4] (topical, overall conclusion, unlike silver nitrate) was “did not have problems of darkening, irritation, itching or inflammation”. For the same molecule, the displacement time in data set [5] was 1 s. This molecule returned a GHS classification in data set [7] (Globally Harmonised Classification System) of 5. Moreover, the “median lethal oral dose (LD50)” value in data set [7] (OECD Guideline No. 420 fixed dose) is listed as > 2000. Further, the “color (visual inspection)” value in data set [1] (after 1 hour in the dark), in data set [1] (setting [9]) and in data set [1] (after 12 hours in the dark) was “white” each time. The “efficacy in skin surfaces with burns or wounds” value in data set [6] is listed as “produce an improvement”. Further, the “burn healing (visual)” value in data set [6] (silver nitrate burn of the abdomen, 2 daily applications from third day, observed after the fourth day) was “nearly full disappearance of the burn”. The figures for the “areolar or halo diameter” value in data set [2] and in data set [3] were 6 and 7, respectively. For the same molecule, in data set [8] (10% by weight/volume in water), the “viscosity relative to comparative example 8” value is “lower”. Further, the “absorption on cellulose paper relative to comparative example 8” value in data set [8] (10 mL of 10% w/v solution applied on cellulose paper) is given as “absorbed more rapidly”.

Regarding “sodium chondroitin sulfate [comparative example 10]”, the “areolar or halo diameter” value in data set [2] and in data set [3] was 0 throughout.

On to “High Molecular Weight Silver Chondroitin Sulfate [comparative example 8]”, for which the displacement time in data set [5] was 30 s. Besides, the figures for the “color (visual inspection)” value in data set [1] (after 1 hour in the dark), in data set [1] (setting [9]) and in data set [1] (after 12 hours in the dark) were “white”, “dark red” and “white”, respectively. Also, the “areolar or halo diameter” value in data set [2] was determined as 8; in data set [3], 7.

Turning to “Partially Depolymerized Ssilver Chondroitin Sulfate (Bleaching Agent: Sodium Metabisulfite) [comparative example 5]”, the results for the “color (visual inspection)” value in data set [1] (after 1 hour in the dark), in data set [1] (setting [9]) and in data set [1] (after 12 hours in the dark) were “reddish”, “black” and “reddish to black”, respectively.

For the molecule “Partially Depolymerized Gold Chondroitin Sulfate [example 3]”, in data set [4] (in vivo), the “problems of darkening, irritation” value is “did not have problems of darkening, irritation, itching or inflammation” and the “side effects by visual inspection” value is listed as “no relevant behavior”. Moreover, the “areolar or halo diameter” value in data set [2] is 8. The “areolar or halo diameter” value in data set [3] came to 9.

As for `O=[N+]([O-])[O-].[Ag+]` [comparative example 11, AgNO3], the “side effects by visual inspection” value was “irritation, itching, burning and a halo or aureole” in data set [4] (topical, after 8 hours); “increase of the diameter of the aureole of the burn” in data set [4] (topical, after the third day); “irritation, itching and burning” in data set [4] (topical, parts where product was applied, after 60 minutes); “irritation” in data set [4] (topical, upper area of the arm and abdomen, at 10 minutes and at 30 minutes); “increase of the diameter of the aureole of the burn” in data set [4] (topical, upper area of the arm, after the fourth day); “diameter of the aureole of the burn increased” in data set [4] (topical, upper area of the arm, after the seventh day). In addition, the “areolar or halo diameter” value in data set [2] came out at 6; in data set [3], 8.

On to “High Molecular Weight Silver Hyaluronate [comparative example 9]”, for which the displacement time in data set [5] turned out to be 300 s. In addition, the “areolar or halo diameter” value in data set [2] and in data set [3] was 8 each time.
